Data reported in the OligoGym collection.
Values joined by “and” are separate entries in the source; they are usually repeats but may differ in a detail not shown here. Identical values can stand only once. After the bases stand the sugars from the 5' end (letter, count) and the backbone: PS all phosphorothioate, else s phosphorothioate and o phosphodiester by linkage. Methylation of C is not given here. e = 2'-O-(2-methoxyethyl) (MOE); k = constrained ethyl (cEt); d = 2'-deoxy (DNA)

Target: IRF4
Conditions: ASO

Sequence	target mRNA inhibition (SK-MEL-28, 4 µM) [%]	target mRNA inhibition (MM.1R, 1 µM)	further results
CGAAAACAGCCGCCGG (sugars k3 d10 k3, PS)	15	–	–
CGAGGTGATTCTCGGG (sugars k3 d10 k3, PS)	–	15%	–
CGATCATCAACTTCTT (sugars k3 d10 k3, PS)	–	72% and 75%	target mRNA inhibition (MM.1R, 0.0625 µM): 24% and 23%; target mRNA inhibition (MM.1R, 0.25 µM): 50%; target mRNA inhibition (MM.1R, 4 µM): 92% and 93%
CGCAAAACCCCTCAAG (sugars k3 d10 k3, PS)	19	–	–
CGCAAGGCTCGGAGCG (sugars k3 d10 k3, PS)	10	–	–
CGCAGCATCGAACTCC (sugars k3 d10 k3, PS)	33	–	–
CGCCAGGCCGGCTAGG (sugars k3 d10 k3, PS)	10	–	–
CGCGAAGGCTCCTACC (sugars k3 d10 k3, PS)	-41	–	–
CGCGACTCTGTCAGTT (sugars k3 d10 k3, PS)	–	8%	–
CGCTGAACTGAAATCT (sugars k3 d10 k3, PS)	37	–	–
CGGACACGCCCGACCC (sugars k3 d10 k3, PS)	–	7%	–
CGGATAGATCTGTGGT (sugars k3 d10 k3, PS)	–	–	target mRNA inhibition (MM.1R, 0.0625 µM): -25%; target mRNA inhibition (MM.1R, 0.25 µM): -3%; target mRNA inhibition (MM.1R, 4 µM): 50%
CGGCACAGGCGCGGAC (sugars k3 d10 k3, PS)	4	–	–
CGGCAGTCTGCAAACA (sugars k3 d10 k3, PS)	–	24%	–
CGGGAGCCCGGAGGAA (sugars k3 d10 k3, PS)	–	-3%	–
CGGTCAGCAGAACCAC (sugars k3 d10 k3, PS)	–	-8%	–
CGTAACTCAGGCACCA (sugars k3 d10 k3, PS)	30	–	–
CGTAGCCCCTCAGGAA (sugars k3 d10 k3, PS)	–	–	target mRNA inhibition (MM.1R, 4 µM): 81% and 59%
CGTATGTCCATGGGAG (sugars k3 d10 k3, PS)	88	–	–
CGTGATCTGAGACTAC (sugars k3 d10 k3, PS)	–	25% and 36%	–
CGTGTGCTTGCCAAGC (sugars kdddddddddkekeke, PS)	–	24% and 11%	–
CGTGTGCTTGCCAAGC (sugars kkdddddddddkdkdk, PS)	–	67% and 53%	–
CTAAACTCCTAAGTAC (sugars k3 d10 k3, PS)	14	–	–
CTAACAGATAACGAGG (sugars k3 d10 k3, PS)	23	–	–
CTAACTTACAGGACTA (sugars k3 d10 k3, PS)	31	–	–
CTAAGCTTGATAAAGG (sugars k3 d10 k3, PS)	54	–	–

Sequence	target mRNA inhibition (SK-MEL-28, 4 µM) [%]	target mRNA inhibition (MM.1R, 1 µM)	further results
CTAATACCTACCTGCC (sugars k3 d10 k3, PS)	47	–	–
CTACAAGCAGTCATCA (sugars k3 d10 k3, PS)	44	–	–
CTACAAGGTCTGAGTT (sugars k3 d10 k3, PS)	17	–	–
CTACAGGCACGGCTTC (sugars k3 d10 k3, PS)	52	–	–
CTACTATTGTGGAAAA (sugars k3 d10 k3, PS)	3	–	–
CTAGAAAGAGCTGGTA (sugars k3 d10 k3, PS)	15	–	–
CTAGAAAGTGATGCTC (sugars k3 d10 k3, PS)	39	–	–
CTAGAACATGATGAGA (sugars k3 d10 k3, PS)	29	–	–
CTAGATAACATGAGAG (sugars k3 d10 k3, PS)	53	–	–
CTATAATTGGCACGAG (sugars k3 d10 k3, PS)	63	–	–
CTATAGTGTTCCAGGA (sugars kkdddddddddkekek, PS)	–	43%	–
CTCACGAGCACCTCAG (sugars k3 d10 k3, PS)	42	–	–
CTCACTGCTCACTAAG (sugars k3 d10 k3, PS)	64	–	–
CTCCAAAGCATAGAGT (sugars k3 d10 k3, PS)	23	–	–
CTCCAACCCTAGATAA (sugars k3 d10 k3, PS)	2	–	–
CTCCAGGGAATGGATA (sugars k3 d10 k3, PS)	27	–	–
CTCCATTCAAGCCAGT (sugars k3 d10 k3, PS)	58	–	–
CTCCCAGAGTTGTTCC (sugars k3 d10 k3, PS)	34	–	–
CTCCTACCCGCCTGCT (sugars k3 d10 k3, PS)	15	–	–
CTCCTATAACTTCTCC (sugars k3 d10 k3, PS)	33	–	–
CTCGGCCGCCGCCCTC (sugars k3 d10 k3, PS)	37	–	–
CTCTATAGTGTTCCAG (sugars kkddddddddddkeke, PS)	–	27%	–
CTCTATAGTGTTCCAG (sugars kkdddddddddkdkdk, PS)	–	31%	–
CTCTATAGTGTTCCAG (sugars kkkdddddddddkeke, PS)	–	49%	–
CTCTATAGTGTTCCAG (sugars kkkddddddddkekek, PS)	–	15%	–
CTCTGTAACTGACTAA (sugars k3 d10 k3, PS)	–	16%	–

Sequence	target mRNA inhibition (SK-MEL-28, 4 µM) [%]	target mRNA inhibition (MM.1R, 1 µM)	further results
CTCTTAGGCACATCAA (sugars k3 d10 k3, PS)	61	–	–
CTCTTCAGGCACCCAC (sugars k3 d10 k3, PS)	–	13%	–
CTGAAGCTTAGTTATC (sugars k3 d10 k3, PS)	38	–	–
CTGAGATAAGAAGCAC (sugars k3 d10 k3, PS)	37	–	–
CTGCAACTGGCTCACT (sugars k3 d10 k3, PS)	10	–	–
CTGCAGGGTAATTTAG (sugars k3 d10 k3, PS)	34	–	–
CTGCATCGAGATCAGT (sugars k3 d10 k3, PS)	52	–	–
CTGCATGAAAGTGTGT (sugars k3 d10 k3, PS)	56	–	–
CTGCCACTGGTAACTG (sugars k3 d10 k3, PS)	–	21%	–
CTGCGGGTCCTCCAGG (sugars k3 d10 k3, PS)	20	–	–
CTGCTCTGGCACAGTC (sugars k3 d10 k3, PS)	83	–	–
CTGCTTGAGGTTTTCC (sugars k3 d9 k3 e1, PS)	–	65%	target mRNA inhibition (MM.1R, 0.074 µM): 18%; target mRNA inhibition (MM.1R, 0.222 µM): 36%; target mRNA inhibition (MM.1R, 0.666 µM): 60%; target mRNA inhibition (MM.1R, 2 µM): 82%
CTGCTTGAGGTTTTCC (sugars kkdddddddddekeke, PS)	–	49%	–
CTGCTTGAGGTTTTCC (sugars kkdddddddddkekek, PS)	–	30%	–
CTGGATTGCTGATGTG (sugars k3 d10 k3, PS)	–	56% and 36%	target mRNA inhibition (MM.1R, 4 µM): 83% and 71%
CTGGCCTGAAGCTTAG (sugars k3 d10 k3, PS)	–	25%	–
CTGTAACAGGCTATCA (sugars k3 d10 k3, PS)	44	–	–
CTGTATCATGCATACC (sugars k3 d10 k3, PS)	61	–	–
CTGTATTTATGCCCTC (sugars k3 d10 k3, PS)	60	–	–
CTGTCACCTGGCAACC (sugars k3 d10 k3, PS)	–	11%	–
CTGTGTAATGTAGGGA (sugars k3 d10 k3, PS)	42	–	–
CTGTTACCGATGCTTC (sugars k2 d9 e3 k2, PS)	–	64% and 56%	–
CTGTTACCGATGCTTC (sugars k3 d10 k3, PS)	–	56% and 55%	target mRNA inhibition (MM.1R, 0.0625 µM): 18%; target mRNA inhibition (MM.1R, 0.25 µM): 36%; target mRNA inhibition (MM.1R, 4 µM): 82%
CTGTTACCGATGCTTC (sugars kkdddddddddekeke, PS)	–	50% and 60%	–
CTGTTACCGATGCTTC (sugars kkdddddddddkdkdk, PS)	–	58% and 52%	–
CTTAAGCAAGTGGAGG (sugars k3 d10 k3, PS)	70	–	–

Sequence	target mRNA inhibition (SK-MEL-28, 4 µM) [%]	target mRNA inhibition (MM.1R, 1 µM)	further results
CTTAGTCAGAATCTGT (sugars k3 d10 k3, PS)	–	1%	–
CTTATTAGACTGACAG (sugars k3 d10 k3, PS)	41	–	–
CTTATTTGTGGCTCAA (sugars k3 d10 k3, PS)	55	–	–
CTTCCCTGAGAAATGG (sugars k4 d8 k4, PS)	36	–	–
CTTCTTTATAGTAGGT (sugars k3 d10 k3, PS)	20	–	–
CTTGGCAGGGAGCGGC (sugars k3 d10 k3, PS)	–	25%	–
CTTTATCAAGACAAGG (sugars k3 d10 k3, PS)	56	–	–
CTTTGGGCACCAAAAG (sugars k3 d10 k3, PS)	–	-33%	–
GAAACGAGCCAGTGCA (sugars k3 d10 k3, PS)	52	–	–
GAAACGGCCTGGAGGT (sugars k3 d10 k3, PS)	–	17%	–
GAAAGAGCTGGTAGGT (sugars k3 d10 k3, PS)	0	–	–
GAAATAGCATCAGAGC (sugars k3 d10 k3, PS)	45	–	–
GAAATCACGAGGTTGC (sugars k3 d10 k3, PS)	62	32%	target mRNA inhibition (MM.1R, 0.0625 µM): -6%; target mRNA inhibition (MM.1R, 0.074 µM): -3%; target mRNA inhibition (MM.1R, 0.222 µM): 16%; target mRNA inhibition (MM.1R, 0.25 µM): 9%; target mRNA inhibition (MM.1R, 0.666 µM): 22%; target mRNA inhibition (MM.1R, 2 µM): 52%; target mRNA inhibition (MM.1R, 4 µM): 64%
GAAATGTGTTGGAAGA (sugars k3 d10 k3, PS)	68	–	–
GAACAAAAGGTTCCCG (sugars k3 d10 k3, PS)	18	–	–
GAACAAGTGTATCTTT (sugars k3 d10 k3, PS)	–	5%	–
GAACCACAAGCAGTGA (sugars k3 d10 k3, PS)	–	-32%	–
GAACCTGCTGGGCTGG (sugars k3 d10 k3, PS)	36	–	–
GAACTAATGTCCCCAG (sugars k3 d10 k3, PS)	61	–	–
GAAGAGTTGGCGGTGG (sugars k3 d10 k3, PS)	15	–	–
GAAGCATAGAACAGAT (sugars k3 d10 k3, PS)	51	–	–
GAAGCATTTTATCATC (sugars e1 k2 d9 k2 e2, PS)	–	1%	–
GAAGCATTTTATCATC (sugars k2 d9 e3 k2, PS)	–	9%	–
GAAGGCCTGAGTTACC (sugars k3 d10 k3, PS)	–	29%	–
